Laboratory results taken from ChEMBL document CHEMBL3297654, “Synthesis, antimicrobial and cytotoxic activities, and structure-activity relationships of gypsogenin derivatives against human cancer cells” (Eur J Med Chem, 2014).

System: Micrococcus luteus
Assay: Antimicrobial activity against Micrococcus luteus ATCC 9341 assessed as zone of inhibition at 30 mg for 24 hrs at 30 degC by disk diffusion test
Format: functional
Settings: ATCC 9341, 24 h, read-out: DIZ

O=C(N[C@H](CO)[C@H](O)c1ccc([N+](=O)[O-])cc1)C(Cl)Cl [CHLORAMPHENICOL]
zone of inhibition at 30000 µg/disc: 25 mm
